Data on four molecules can be found in ChEMBL document CHEMBL1908105, “UDP-glucuronosyltransferases and clinical drug-drug interactions” (Pharmacol Ther, 2005).

Series [1] concerns the target T1, UGT1A9 (Homo sapiens, UniProt O60656). The series can be described thus: Inhibition of propofol (assayed at the Km) glucuronidation by human recombinant UGT1A9 (+/- 15% inhibition at 5mM VPA). The conditions noted are these: recombinant UGT1A9, probe propofol.
For another series, the target named is UGT2B15 (Homo sapiens, UniProt P54855). Kind of series: Inhibition of dihydrotestosterone (assayed at the Km) glucuronidation by human recombinant UGT2B15 (+/- 11% inhibition at 5mM VPA). The conditions noted are these: recombinant UGT2B15, probe dihydrotestosterone.
Chain of UGT2B15 (P54855 whole entry): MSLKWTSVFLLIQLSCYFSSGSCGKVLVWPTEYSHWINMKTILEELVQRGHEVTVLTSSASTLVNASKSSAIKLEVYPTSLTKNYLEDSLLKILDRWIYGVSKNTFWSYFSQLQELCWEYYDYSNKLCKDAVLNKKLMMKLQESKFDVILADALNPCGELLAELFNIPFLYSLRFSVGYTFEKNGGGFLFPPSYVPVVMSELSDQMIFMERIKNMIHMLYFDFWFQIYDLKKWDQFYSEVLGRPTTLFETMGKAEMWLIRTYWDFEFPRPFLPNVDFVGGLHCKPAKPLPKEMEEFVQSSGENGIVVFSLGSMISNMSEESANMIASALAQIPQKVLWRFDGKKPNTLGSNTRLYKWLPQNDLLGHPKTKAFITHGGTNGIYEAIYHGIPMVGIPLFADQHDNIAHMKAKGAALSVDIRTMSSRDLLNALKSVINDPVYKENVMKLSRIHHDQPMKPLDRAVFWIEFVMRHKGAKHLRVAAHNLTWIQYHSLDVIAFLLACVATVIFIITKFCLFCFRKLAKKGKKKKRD
Series [2] has as its target T2, UDP-glucuronosyltransferase 2B7 (Homo sapiens, UniProt P16662).
T2 sequence (P16662 whole entry): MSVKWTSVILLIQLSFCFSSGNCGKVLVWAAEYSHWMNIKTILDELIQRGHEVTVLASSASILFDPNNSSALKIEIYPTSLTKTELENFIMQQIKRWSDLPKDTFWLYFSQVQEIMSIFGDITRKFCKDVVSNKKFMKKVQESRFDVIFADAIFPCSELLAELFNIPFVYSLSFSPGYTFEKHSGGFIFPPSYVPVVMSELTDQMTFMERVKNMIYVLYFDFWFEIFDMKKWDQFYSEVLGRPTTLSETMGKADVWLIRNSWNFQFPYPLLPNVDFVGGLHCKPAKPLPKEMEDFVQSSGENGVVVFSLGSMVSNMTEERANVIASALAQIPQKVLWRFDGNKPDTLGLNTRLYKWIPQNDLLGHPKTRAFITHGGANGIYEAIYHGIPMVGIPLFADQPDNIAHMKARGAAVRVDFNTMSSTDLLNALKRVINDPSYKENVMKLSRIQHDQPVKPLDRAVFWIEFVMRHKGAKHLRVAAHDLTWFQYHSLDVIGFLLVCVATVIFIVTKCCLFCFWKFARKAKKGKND
The series can be described thus: Inhibition of AZT glucuronidation by human recombinant UGT2B7.

Series [3] can be described thus: Inhibition of ciramadol glucuronidation by human UGT enzymes from liver microsomes. More on the design: species or system Microsome. For orientation: Liver microsomes are vesicles of endoplasmic reticulum, rich in cytochrome P450 enzymes.
Series [4] can be described thus: Inhibition of morphine glucuronidation by human fetal-liver microsomes. More on the design: species or system Microsome.
Series [5] in a line: Inhibition of 4-methylumbelliferone glucuronidation by human UGT enzymes from liver microsomes. More on the design: species or system Microsome.
A short description of series [6]: Inhibition of AZT glucuronidation by human UGT enzymes from liver microsomes. More on the design: species or system Microsome.
Series [7] deals with T3, UDP-glucuronosyltransferase 1A1 (Homo sapiens, UniProt P22309).
T3 sequence (P22309 whole entry): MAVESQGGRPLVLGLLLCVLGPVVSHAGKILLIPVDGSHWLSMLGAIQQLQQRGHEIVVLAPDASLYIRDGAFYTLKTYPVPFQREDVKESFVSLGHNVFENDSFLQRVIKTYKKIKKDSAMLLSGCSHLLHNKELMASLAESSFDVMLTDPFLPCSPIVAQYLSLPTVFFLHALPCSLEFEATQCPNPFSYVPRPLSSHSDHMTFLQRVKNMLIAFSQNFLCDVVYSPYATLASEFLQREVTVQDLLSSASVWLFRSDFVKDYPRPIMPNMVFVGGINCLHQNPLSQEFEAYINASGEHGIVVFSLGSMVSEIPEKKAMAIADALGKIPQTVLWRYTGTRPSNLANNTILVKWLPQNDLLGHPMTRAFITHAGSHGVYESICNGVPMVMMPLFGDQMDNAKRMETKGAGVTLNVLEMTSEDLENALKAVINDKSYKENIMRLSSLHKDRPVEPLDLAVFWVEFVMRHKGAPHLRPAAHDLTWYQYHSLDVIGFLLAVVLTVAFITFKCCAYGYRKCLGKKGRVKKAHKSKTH
Kind of series: Inhibition of 4-methylumbelliferone glucuronidation by human recombinant UGT1A1.

Series [8] deals with UDP-glucuronosyltransferase 1A10 (Homo sapiens, UniProt Q9HAW8). Kind of series: Inhibition of 4-methylumbelliferone glucuronidation by human recombinant UGT1A10.
Chain of UDP-glucuronosyltransferase 1A10 (Q9HAW8 whole entry): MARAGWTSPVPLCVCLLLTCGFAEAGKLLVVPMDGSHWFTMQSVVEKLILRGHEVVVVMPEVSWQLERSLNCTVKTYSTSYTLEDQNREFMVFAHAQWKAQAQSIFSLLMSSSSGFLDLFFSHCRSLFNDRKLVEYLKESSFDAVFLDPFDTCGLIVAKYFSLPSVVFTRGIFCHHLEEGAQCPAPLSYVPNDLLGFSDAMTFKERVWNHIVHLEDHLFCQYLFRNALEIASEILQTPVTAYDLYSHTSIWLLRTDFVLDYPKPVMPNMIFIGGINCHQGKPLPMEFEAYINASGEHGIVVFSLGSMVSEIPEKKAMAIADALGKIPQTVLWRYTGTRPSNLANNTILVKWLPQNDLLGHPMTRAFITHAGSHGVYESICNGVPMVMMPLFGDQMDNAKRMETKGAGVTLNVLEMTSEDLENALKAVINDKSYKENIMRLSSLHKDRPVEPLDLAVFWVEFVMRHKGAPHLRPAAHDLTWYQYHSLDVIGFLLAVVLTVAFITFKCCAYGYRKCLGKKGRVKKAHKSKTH
Series [9] has as its target T4, UDP-glucuronosyltransferase 1A9 (Homo sapiens, UniProt O60656).
T4 sequence (O60656 whole entry): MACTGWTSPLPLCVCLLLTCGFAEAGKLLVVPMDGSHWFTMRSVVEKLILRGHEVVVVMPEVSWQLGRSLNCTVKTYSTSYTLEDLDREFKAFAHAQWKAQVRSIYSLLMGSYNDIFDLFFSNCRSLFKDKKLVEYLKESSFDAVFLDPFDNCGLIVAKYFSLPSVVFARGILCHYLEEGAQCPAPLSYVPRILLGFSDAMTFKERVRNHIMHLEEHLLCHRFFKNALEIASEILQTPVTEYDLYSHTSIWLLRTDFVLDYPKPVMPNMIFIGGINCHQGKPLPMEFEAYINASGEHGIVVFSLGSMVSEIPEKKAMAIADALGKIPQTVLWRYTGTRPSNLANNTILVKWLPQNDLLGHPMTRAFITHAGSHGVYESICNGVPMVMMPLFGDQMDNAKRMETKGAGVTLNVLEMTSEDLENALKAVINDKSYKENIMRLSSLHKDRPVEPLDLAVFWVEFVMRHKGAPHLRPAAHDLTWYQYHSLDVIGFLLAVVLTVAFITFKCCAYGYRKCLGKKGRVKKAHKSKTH
The series can be described thus: Inhibition of 4-methylumbelliferone glucuronidation by human recombinant UGT1A9.

For series [10], the target named is UDP-glucuronosyltransferase 1A7 (Homo sapiens, UniProt Q9HAW7). The series can be described thus: Inhibition of 4-methylumbelliferone glucuronidation by human recombinant UGT1A7.
Chain of UDP-glucuronosyltransferase 1A7 (Q9HAW7 whole entry): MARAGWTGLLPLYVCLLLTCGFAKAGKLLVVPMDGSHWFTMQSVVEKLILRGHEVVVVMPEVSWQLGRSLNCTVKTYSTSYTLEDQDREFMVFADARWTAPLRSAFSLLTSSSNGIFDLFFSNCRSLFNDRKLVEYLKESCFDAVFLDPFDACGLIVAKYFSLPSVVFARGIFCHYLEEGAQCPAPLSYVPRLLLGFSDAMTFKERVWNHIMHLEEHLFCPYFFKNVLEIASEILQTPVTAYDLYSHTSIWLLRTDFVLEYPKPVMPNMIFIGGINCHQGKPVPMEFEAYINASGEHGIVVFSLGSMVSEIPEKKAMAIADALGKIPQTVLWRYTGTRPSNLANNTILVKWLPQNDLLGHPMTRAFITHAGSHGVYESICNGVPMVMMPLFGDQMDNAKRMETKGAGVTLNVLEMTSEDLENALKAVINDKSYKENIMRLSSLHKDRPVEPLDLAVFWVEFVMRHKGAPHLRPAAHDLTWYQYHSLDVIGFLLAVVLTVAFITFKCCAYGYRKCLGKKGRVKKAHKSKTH
A short description of series [11]: Inhibition of codeine glucuronidation by human UGT enzymes from liver homogenate. The class given is tissue-based.
The target of series [12] is T5, UDP-glucuronosyltransferase 1A3 (Homo sapiens, UniProt P35503).
T5 sequence (P35503 whole entry): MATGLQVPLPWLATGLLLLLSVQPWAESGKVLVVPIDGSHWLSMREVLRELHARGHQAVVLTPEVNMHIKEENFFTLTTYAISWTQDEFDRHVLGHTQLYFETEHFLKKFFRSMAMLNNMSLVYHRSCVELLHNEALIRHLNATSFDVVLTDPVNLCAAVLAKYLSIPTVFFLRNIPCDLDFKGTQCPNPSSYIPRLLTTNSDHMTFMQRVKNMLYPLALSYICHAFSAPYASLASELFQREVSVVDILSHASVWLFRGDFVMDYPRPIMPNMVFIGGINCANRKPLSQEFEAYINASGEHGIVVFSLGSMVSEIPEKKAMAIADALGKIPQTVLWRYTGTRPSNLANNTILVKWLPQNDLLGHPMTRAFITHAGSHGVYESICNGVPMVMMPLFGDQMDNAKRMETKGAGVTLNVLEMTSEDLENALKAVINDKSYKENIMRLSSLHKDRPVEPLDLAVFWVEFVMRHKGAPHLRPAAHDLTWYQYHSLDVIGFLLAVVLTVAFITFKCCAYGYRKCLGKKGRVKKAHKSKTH
The series can be described thus: (§1) Drug glucuronidation reaction catalyzed by human recombinant UGT1A3.

Another series concerns the target UGT1A3 (Homo sapiens, UniProt P35503). The description is as §1. The conditions noted are these: recombinant UGT1A3.
The target of series [13] is T2, UDP-glucuronosyltransferase 2B7. Kind of series: (§2) Drug glucuronidation reaction catalyzed by human recombinant UGT2B7.
The target of another series is T6, UGT2B7 (Homo sapiens, UniProt P16662).
T6 sequence (P16662 whole entry): T2 sequence (P16662 whole entry)
The series is described as §2. Particulars: recombinant UGT2B7.

The target of series [14] is T4, UDP-glucuronosyltransferase 1A9. Kind of series: (§3) Drug glucuronidation reaction catalyzed by human recombinant UGT1A9.
In series [15] the target is T1, UGT1A9. The series is described as §3. The conditions noted are these: recombinant UGT1A9.
Series [16] is described as follows: Inhibition of acetaminophen glucuronidation by human UGT enzymes from liver microsomes. More on the design: species or system Microsome.
The target in series [17] is UDP-glucuronosyltransferase 1A6 (Homo sapiens, UniProt P19224). The series can be described thus: Inhibition of 4-methylumbelliferone glucuronidation by human recombinant UGT1A6.
Chain of UDP-glucuronosyltransferase 1A6 (P19224 whole entry): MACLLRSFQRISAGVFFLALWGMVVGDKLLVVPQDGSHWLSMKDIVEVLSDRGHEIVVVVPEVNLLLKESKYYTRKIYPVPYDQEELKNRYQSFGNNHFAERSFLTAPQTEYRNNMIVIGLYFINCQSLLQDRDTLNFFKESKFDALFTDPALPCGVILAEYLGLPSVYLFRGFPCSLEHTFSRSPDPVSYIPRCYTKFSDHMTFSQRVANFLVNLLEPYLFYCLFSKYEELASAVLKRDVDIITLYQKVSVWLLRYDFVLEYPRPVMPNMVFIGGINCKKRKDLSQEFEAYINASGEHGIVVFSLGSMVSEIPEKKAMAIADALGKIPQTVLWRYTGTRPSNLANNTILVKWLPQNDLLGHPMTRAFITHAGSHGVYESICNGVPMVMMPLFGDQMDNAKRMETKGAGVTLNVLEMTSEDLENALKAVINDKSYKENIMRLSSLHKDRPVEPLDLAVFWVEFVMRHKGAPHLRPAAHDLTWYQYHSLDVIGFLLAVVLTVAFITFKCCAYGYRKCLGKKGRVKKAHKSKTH

Structures are written as SMILES. Values joined by “and” are separate entries in the source; they are usually repeats but may differ in a detail not shown here. Identical values can stand only once.

What is called inhibition is the percentage by which the read-out fell short of the control. What is called Ki is the equilibrium dissociation constant of an inhibitor or competing ligand from its target. Consider `CCCC(CCC)C(=O)O` [VALPROIC ACID], for which the results for the inhibition at 5000 µM at UGT1A9 [1] and at UGT2B15 were 46% and 41%, respectively. For the same molecule, the Ki in series [2] was 1600 µM.
For `O=C1Nc2ccc(Cl)cc2C(c2ccccc2)=NC1O` (stereo not given) [OXAZEPAM], the Ki is 120 µM in series [3]; 200 µM and 270 µM in series [4]; 188 µM in series [5]; 580 µM in series [6].
A word on the Km: it is the substrate concentration at which the rate is half of its maximum. In the case of `O=C(O)Cc1ccccc1Nc1c(Cl)cccc1Cl` [DICLOFENAC], the Ki in [7] stood at 52 µM; in [8], 28 µM; in series [9] it was 11 µM; in [10], 19 µM; in series [11] it was 7.9 µM. For the same molecule, the values for the Vmax in series [12] and in [14] were 142 pmol/min/mg protein and 166 pmol/min/mg protein, respectively. Further, the Km is 12 µM on UGT1A3, 25 µM in series [13], 13 µM at UGT2B7 and 16 µM at UGT1A9 [15].
With `CCCN(CCC)S(=O)(=O)c1ccc(C(=O)O)cc1` [PROBENECID], the Ki in [7] turned out to be 221 µM; in series [8] it was 231 µM; in series [16] it was 1100 µM; in series [9] it was 2450 µM; in [10] it was 96 µM; in [17] it was 1430 µM. This molecule had a Ki in series [6] of 1600 µM.
